Source: article PMC5011342, “A high throughput drug screening assay to identify compounds that promote oligodendrocyte differentiation using acutely dissociated and purified oligodendrocyte precursor cells” (BMC Research Notes, 2016)
Like-named read-outs stand apart in the source and are kept apart here.

Assays:
expanded OPCs = assay: cells; settings: for viability at 0.1 µM / viability at 1 µM / viability at 10 µM: Rattus norvegicus, 72 h
How it was run: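 Toxicity screen: compounds added at 0.1, 1 and 10 µM to PDGF-AA-expanded OPCs in 96-well plates, 3-day incubation at 37 °C, 10% CO2, then alamarBlue 1:10 for 4 h with fluorescence readout. Results set screening doses of 10/2, 2/0.4 or 0.4/0.08 µM.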

[1] = system: acutely dissociated and purified rat OPCs; assay: Acute OL differentiation assay (MBP expression/cell, immunofluorescent image quantification); format: cell-based; settings: for activation at 2 µM / activation at 10 µM / activation at 0.4 µM / EC50: Rattus norvegicus; for EC50: average EC50 for induction of OL differentiation from independent biological replicates, eight concentrations; for hit in OL differentiation assay, MRF-TMC: ● = confirmed hit in this paper's assay
How it was run: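 This acute differentiation assay used purified rat OPCs from postnatal day 6–7 pups, seeded into PDL/laminin-coated 96-well plates in differentiation medium lacking PDGF and FGF. Compounds were applied in quadruplicate after a 1–2 h preincubation at 37 °C, 10 % CO2, with 0.1 % DMSO negative and 40 ng/ml T3 positive controls in eight wells. After fixation on DIV4, anti-MBP immunofluorescence images yielded MBP expression/cell.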

[2] = read-out: 0.1 µM (% DMSO), alamarBlue viability of expanded OPCs, compound at 0.1 µM, sheet All Tox data
[3] = read-out: 1 µM (% DMSO), alamarBlue viability of expanded OPCs, compound at 1 µM, sheet All Tox data
[4] = read-out: 10 µM (% DMSO), alamarBlue viability of expanded OPCs, compound at 10 µM, sheet All Tox data
[5] = 2 uM test compound, relative to quetiapine, sheet "All OLga data", read-out: OL differentiation, 2 uM (% Quet)
[6] = 10 uM test compound, relative to quetiapine, sheet "All OLga data", read-out: OL differentiation, 10 uM (% Quet)
[7] = alamarBlue viability of expanded OPCs, compound at 0.1 µM, relative to DMSO control
[8] = alamarBlue viability of expanded OPCs, compound at 1 µM, relative to DMSO control
[9] = alamarBlue viability of expanded OPCs, compound at 10 µM, relative to DMSO control
[10] = test compound at 2 uM, MBP expression relative to quetiapine, NCC library screen, sheet "All OLga data", read-out: 2 uM (% Quet)
[11] = test compound at 10 uM, MBP expression relative to quetiapine, NCC library screen, sheet "All OLga data", read-out: 10 uM (% Quet)
[12] = 0.4 uM test compound, relative to quetiapine, sheet "All OLga data", read-out: OL differentiation, 0.4 uM (% Quet)
[13] = read-out: 0.1 µM (% DMSO), alamarBlue viability, NCC library compound at 0.1 µM, sheet "All Tox data"
[14] = read-out: 1 µM (% DMSO), alamarBlue viability, NCC library compound at 1 µM, sheet "All Tox data"
[15] = read-out: 10 µM (% DMSO), alamarBlue viability, NCC library compound at 10 µM, sheet "All Tox data"
[16] = test compound at 2 uM, NCC library screen, sheet "All OLga data", relative to quetiapine, read-out: 2 uM (% Quet)

SMILES: C[C@H]1C[C@H]2[C@@H]3CCC4=CC(=O)C=C[C@]4(C)[C@@]3(Cl)[C@@H](O)C[C@]2(C)[C@@]1(O)C(=O)CO [Beclomethasone]
- 0.1 µM (% DMSO) (expanded OPCs): 90.7 % DMSO
- 1 µM (% DMSO) (expanded OPCs): 90.4 % DMSO
- 10 µM (% DMSO) (expanded OPCs): 81.7 % DMSO
- 0.1 µM (% DMSO) (expanded OPCs; alamarBlue viability, NCC library compound at 0.1 µM, sheet "All Tox data"): 110.9 % DMSO
- 1 µM (% DMSO) (expanded OPCs; alamarBlue viability, NCC library compound at 1 µM, sheet "All Tox data"): 114.8 % DMSO
- 10 µM (% DMSO) (expanded OPCs; alamarBlue viability, NCC library compound at 10 µM, sheet "All Tox data"): 117.6 % DMSO
- 2 uM (% Quet) ([1]; test compound at 2 uM, MBP expression relative to quetiapine, NCC library screen, sheet "All OLga data"): -121.4 % Quet
- 2 uM (% Quet) ([1]; test compound at 2 uM, NCC library screen, sheet "All OLga data", relative to quetiapine): -1.4 % Quet
- 10 uM (% Quet) ([1]; test compound at 10 uM, MBP expression relative to quetiapine, NCC library screen, sheet "All OLga data"): -191.3 % Quet
- 10 uM (% Quet) ([1]; test compound at 10 uM, NCC library screen, sheet "All OLga data", relative to quetiapine): -5.2 % Quet

SMILES: CCN(CC)CCOC(=O)C(O)(c1ccccc1)c1ccccc1 [Benactyzine]
- viability at 0.1 µM (expanded OPCs; read-out: 0.1 µM (% DMSO)): 100%
- viability at 1 µM (expanded OPCs; read-out: 1 µM (% DMSO)): 88.2%
- viability at 10 µM (expanded OPCs; read-out: 10 µM (% DMSO)): 90%
- activation at 2 µM ([1]; read-out: 2 uM (% Quet)): -1.9%
- activation at 10 µM ([1]; read-out: 10 uM (% Quet)): -2.1%

SMILES: CCOC(=O)[C@H](CCc1ccccc1)N[C@H]1CCc2ccccc2N(CC(=O)O)C1=O [Benazepril]
- viability at 0.1 µM (expanded OPCs; [2]): 84.6%
- viability at 1 µM (expanded OPCs; [3]): 88.2%
- viability at 10 µM (expanded OPCs; [4]): 93.6%
- activation at 2 µM [1, 5]: -27.7%
- activation at 10 µM [1, 6]: -26.2%

SMILES: NS(=O)(=O)c1cc2c(cc1C(F)(F)F)NC(Cc1ccccc1)NS2(=O)=O (stereo not shown) [Bendroflumethiazide]
- 0.1 µM (% DMSO) (expanded OPCs; [7]): 95.4 % DMSO
- 1 µM (% DMSO) (expanded OPCs; [8]): 93.1 % DMSO
- 10 µM (% DMSO) (expanded OPCs; [9]): 98.5 % DMSO
- activation at 2 µM [1, 10]: -41.7%
- activation at 10 µM [1, 11]: -47.6%

SMILES: COC(=O)C1=C(C)NC(C)=C(C(=O)OC2CCCN(Cc3ccccc3)C2)C1c1cccc([N+](=O)[O-])c1 (stereo not shown) [Benidipine]
- viability at 0.1 µM (expanded OPCs; [2]): 84.6%
- viability at 1 µM (expanded OPCs; [3]): 93%
- viability at 10 µM (expanded OPCs; [4]): 11.6%
- activation at 0.4 µM [1, 12]: 7.1%
- activation at 2 µM [1, 5]: 3.1%

SMILES: CC(COc1ccccc1Cc1ccccc1)N1CCCCC1 (stereo not shown) [Benproperine, reference compound]
- viability at 0.1 µM (expanded OPCs; [2]): 105%
- viability at 1 µM (expanded OPCs; [3]): 123%
- viability at 10 µM (expanded OPCs; [4]): 20.9%
- activation at 0.4 µM [1, 12]: 82.1%
- activation at 2 µM [1, 5]: 99.4%
- EC50 [1]: 0.8 µM
- hit in OL differentiation assay, MRF-TMC [1]: ●

SMILES: CN1[C@@H]2CC[C@H]1C[C@@H](OC(c1ccccc1)c1ccccc1)C2 [Benzatropine]
- 0.1 µM (% DMSO) (expanded OPCs; [7]): 139.9 % DMSO
- 1 µM (% DMSO) (expanded OPCs; [8]): 133.9 % DMSO
- 10 µM (% DMSO) (expanded OPCs; [9]): 38.5 % DMSO
- activation at 0.4 µM ([1]; test compound at 0.4 uM, MBP expression relative to quetiapine, NCC library screen, sheet "All OLga data", read-out: 0.4 uM (% Quet)): 123%
- activation at 2 µM [1, 10]: 102%

SMILES: CCc1oc2ccccc2c1C(=O)c1cc(Br)c(O)c(Br)c1 [Benzbromarone]
- viability at 0.1 µM (expanded OPCs; [13]): 95.3%
- viability at 1 µM (expanded OPCs; [14]): 93.2%
- viability at 10 µM (expanded OPCs; [15]): 35.6%
- activation at 0.4 µM ([1]; test compound at 0.4 uM, NCC library screen, sheet "All OLga data", relative to quetiapine, read-out: 0.4 uM (% Quet)): -1.1%
- activation at 2 µM [1, 16]: 23.7%

SMILES: CC(C)NCC(O)COc1ccc(CCOCC2CC2)cc1 (stereo not shown) [Betaxolol, reference compound]
- viability at 0.1 µM (expanded OPCs; [13]): 102%
- viability at 1 µM (expanded OPCs; [14]): 97.8%
- viability at 10 µM (expanded OPCs; [15]): 104%
- activation at 2 µM [1, 5]: 32.8%
- activation at 10 µM [1, 6]: 51.8%
- EC50 [1]: 4.2 µM
- hit in OL differentiation assay, MRF-TMC [1]: ●

SMILES: CC(C[N+](C)(C)C)OC(N)=O (stereo not shown) [Bethanechol]
- 0.1 µM (% DMSO) (expanded OPCs; [7]): 87.6 % DMSO
- 1 µM (% DMSO) (expanded OPCs; [8]): 93.0 % DMSO
- 10 µM (% DMSO) (expanded OPCs; [9]): 88.2 % DMSO
- activation at 2 µM [1, 10]: -1%
- activation at 10 µM [1, 11]: -21.7%

SMILES: CC(O)(CS(=O)(=O)c1ccc(F)cc1)C(=O)Nc1ccc(C#N)c(C(F)(F)F)c1 (stereo not shown) [Bicalutamide]
- viability at 0.1 µM (expanded OPCs; [2]): 93.3%
- viability at 1 µM (expanded OPCs; [3]): 96%
- viability at 10 µM (expanded OPCs; [4]): 119%
- activation at 2 µM [1, 5]: -3%
- activation at 10 µM [1, 6]: 6.9%

SMILES: c1ccc(-c2ccc(C(c3ccccc3)n3ccnc3)cc2)cc1 (stereo not shown) [Bifonazole, reference compound]
- viability at 0.1 µM (expanded OPCs; [13]): 121%
- viability at 1 µM (expanded OPCs; [14]): 187%
- viability at 10 µM (expanded OPCs; [15]): 11.9%
- activation at 0.4 µM [1, 12]: 67.3%
- activation at 2 µM [1, 5]: 105%
- EC50 [1]: 1.7 µM
- hit in OL differentiation assay, MRF-TMC [1]: ●

SMILES: O=C1CC2(CCCC2)CC(=O)N1CCNCC1COc2ccccc2O1 (stereo not shown) [Binospirone]
- viability at 0.1 µM (expanded OPCs; [13]): 96%
- viability at 1 µM (expanded OPCs; [14]): 97.6%
- viability at 10 µM (expanded OPCs; [15]): 97.4%
- activation at 2 µM [1, 16]: 37.7%
- activation at 10 µM ([1]; test compound at 10 uM, NCC library screen, sheet "All OLga data", relative to quetiapine, read-out: 10 uM (% Quet)): 14.1%
